Results from patent US20100261719A1, “CHEMICAL COMPOUNDS” (priority 2007, published 2010).

Target: Escherichia coli DNA gyrase A/B tetramer (Escherichia coli, UniProt P0AES4+P0AES6)
Test: DNA gyrase supercoiling activity fluorescence polarisation assay
Format: biochemical
Conditions: not given
Description: In a black, 384-well polystyrene assay plate, 30 microliters/well of 5 nM Escherichia coli DNA gyrase A/B tetramer and 130 micrograms/ml of topologically relaxed plasmid containing the triplex-forming sequence […] in an assay buffer consisting of 35 mM Tris-HCl (pH 7.5), 24 mM KCl, 4 mM MgCl2, 2 mM dithiothreitol, 1.8 mM spermidine, 5% (v/v) glycerol, 200 nM bovine serum albumin, 0.8% dimethylsulfoxide, and 0.3 mM ATP may be incubated at ambient temperature for (typically 30 minutes) in the absence or presence of 5-10 different concentrations of test compound. The supercoiling reactions may be quenched by the addition of 10 microliters/well of 40 nM oligodeoxynucleotide probe in 3× triplex-forming buffer consisting of 150 mM NaCl, and 150 mM sodium acetate at pH 3.5. The oligodeoxynucleotide probe may be 5′-BODIPY-FL-labeled TTCTTCTTC. After 60 minutes, the fluorescence anisotropy of the BODIPY-FL may be measured in a Tecan Ultra plate reader, using 485 nm excitation and 535 nm emission filters equipped with polarizers. The IC50 may be determined by nonliner regression using two control reactions. The first contains no test compound but 0.8% DMSO (100% activity) while the second control reaction contains 5 uM Ciprofloxacin and 0.8% DMSO (0% activity).
When tested in an in-vitro assay based on the DNA gyrase supercoiling activity fluorescence polarisation assay described above, the E. coli DNA gyrase supercoiling IC50 assay inhibitory activity of the following Examples was measured at the indicated IC50.

Chain of Escherichia coli DNA gyrase A/B tetramer (P0AES4 whole entry, one chain of several): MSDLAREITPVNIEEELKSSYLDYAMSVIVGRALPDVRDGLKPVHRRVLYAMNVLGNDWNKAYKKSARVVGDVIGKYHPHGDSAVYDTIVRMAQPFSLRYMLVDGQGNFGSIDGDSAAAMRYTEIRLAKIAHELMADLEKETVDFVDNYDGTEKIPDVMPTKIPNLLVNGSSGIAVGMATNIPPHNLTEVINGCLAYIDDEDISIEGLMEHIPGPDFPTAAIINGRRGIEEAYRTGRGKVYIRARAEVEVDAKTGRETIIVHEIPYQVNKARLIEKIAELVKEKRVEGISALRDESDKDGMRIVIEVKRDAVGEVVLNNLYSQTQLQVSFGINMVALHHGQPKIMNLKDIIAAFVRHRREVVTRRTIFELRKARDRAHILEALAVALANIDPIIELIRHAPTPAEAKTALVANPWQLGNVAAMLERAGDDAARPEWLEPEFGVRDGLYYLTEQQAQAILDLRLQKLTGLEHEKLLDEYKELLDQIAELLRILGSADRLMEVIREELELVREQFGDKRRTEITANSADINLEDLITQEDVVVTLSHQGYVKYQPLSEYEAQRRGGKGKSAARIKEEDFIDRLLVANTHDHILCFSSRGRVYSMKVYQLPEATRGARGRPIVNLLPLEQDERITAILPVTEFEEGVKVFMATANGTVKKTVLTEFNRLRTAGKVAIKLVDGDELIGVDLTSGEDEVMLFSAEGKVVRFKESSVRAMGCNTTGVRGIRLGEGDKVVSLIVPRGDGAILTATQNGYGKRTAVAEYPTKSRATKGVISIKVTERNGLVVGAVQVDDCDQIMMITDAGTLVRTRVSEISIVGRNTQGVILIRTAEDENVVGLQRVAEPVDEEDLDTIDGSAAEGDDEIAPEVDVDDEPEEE

`C[C@@H]1CN2c3c(cc(C(=O)NC4CCN(c5ccccn5)CC4)c(F)c3F)CC3(C(=O)NC(=O)NC3=O)[C@H]2[C@H](C)O1` (relative stereo) [Example 68, (2R,4S,4aS)-rel-9,10-Difluoro-2,4-dimethyl-2′,4′,6′-trioxo-N-[1-(pyridin-2-yl)piperidin-4-yl]-1,1′,2,3′,4,4′,4a,6′-octahydro-2′H,6H-spiro[1,4-oxazino[4,3-a]quinoline-5,5′-pyrimidine]-8-carboxamide] and `C[C@@H]1CN2c3c(cc(C(=O)NC4CCNCC4)c(F)c3F)CC3(C(=O)NC(=O)NC3=O)[C@H]2[C@H](C)O1` (relative stereo) [Example 71, (2R,4S,4aS)-rel-9,10-Difluoro-2,4-dimethyl-2′,4′,6′-trioxo-N-(piperidin-4-yl)-1,1′,2,3′,4,4′,4a,6′-octahydro-2′H,6H-spiro[1,4-oxazino[4,3-a]quinoline-5 ,5′-pyrimidine]-8-carboxamide] are within 1.5-fold of each other in IC50: 4150 nM for the first, 5970 nM for the second.

Going from `Cc1nnc(C#Cc2cc3c(cc2F)N2C[C@@H](C)O[C@@H](C)[C@@H]2C2(C3)C(=O)NC(=O)NC2=O)s1` (relative stereo) [Example 25, (2R,4S,4aS)-rel-9-Fluoro-2,4-dimethyl-8-[(5-methyl-1,3,4-thiadiazol-2-yl)ethynyl]-1,2,4,4a-tetrahydro-2′H,6H-spiro[1,4-oxazino[4,3-a]quinoline-5,5′-pyrimidine]-2′,4′,6′(1′H,3′H)-trione] to `C[C@@H]1CN2c3cc(F)c(C#Cc4cccnc4)cc3CC3(C(=O)NC(=O)NC3=O)[C@H]2[C@H](C)O1` (relative stereo) [Example 32, (2R,4S,4aS)-rel-9-Fluoro-2,4-dimethyl-8-(pyridin-3-ylethynyl)-1,2,4,4a-tetrahydro-2′H,6H-spiro[1,4-oxazino[4,3-a]quinoline-5,5′-pyrimidine]-2′,4′,6′(1′H,3′H)-trione], the IC50 rises from 870 nM to 2240 nM (2.6-fold).

`C[C@@H]1CN2c3c(cc(C(=O)NC4CCS(=O)(=O)C4)c(F)c3F)CC3(C(=O)NC(=O)NC3=O)[C@H]2[C@H](C)O1` (relative stereo) [Example 62, (2R,4S,4aS)-rel-N-(1,1-Dioxidotetrahydrothiophen-3-yl)-9,10-difluoro-2,4-dimethyl-2′,4′,6′-trioxo-1,1′,2,3′,4,4′,4a,6′-octahydro-2′H,6H-spiro[1,4-oxazino[4,3-a]quinoline-5,5′-pyrimidine]-8-carboxamide] and `C[C@@H]1CN2c3c(cc(C(=O)NC4CCOC4)c(F)c3F)CC3(C(=O)NC(=O)NC3=O)[C@H]2[C@H](C)O1` (relative stereo) [Example 64, (2R,4S,4aS)-rel-9,10-Difluoro-2,4-dimethyl-2′,4′,6′-trioxo-N-(tetrahydrofuran-3-yl)-1,1′,2,3′,4,4′,4a,6′-octahydro-2′H,6H-spiro[1,4-oxazino[4,3-a]quinoline-5,5′-pyrimidine]-8-carboxamide] are within 1.5-fold of each other in IC50: 7100 nM for the first, 5050 nM for the second.

Compared with `C[C@H]1CN2c3c(cc(C#Cc4cccs4)c(F)c3F)CC3(C(=O)NC(=O)NC3=O)[C@@H]2[C@@H](C)O1` (relative stereo) [Example 10, (2S,4R,4aR)-rel-9,10-Difluoro-2,4-dimethyl-8-(thiophen-2-ylethynyl)-1,2,4,4a-tetrahydro-2′H,6H-spiro[1,4-oxazino[4,3-a]quinoline-5,5′-pyrimidine]-2′,4′,6′(1′H,3′H)-trione], `C[C@H]1CN2c3c(cc(C#Cc4cncs4)c(F)c3F)CC3(C(=O)NC(=O)NC3=O)[C@@H]2[C@@H](C)O1` (relative stereo) [Example 9, (2S,4R,4aR)-rel-9,10-Difluoro-2,4-dimethyl-8-(1,3-thiazol-5-ylethynyl)-1,2,4,4a-tetrahydro-2′H,6H-spiro[1,4-oxazino[4,3-a]quinoline-5,5′-pyrimidine]-2′,4′,6′(1′H,3′H)-trione] is 2.1-fold lower in IC50: 1450 nM for the first, 700 nM for the second. The second is the more potent here.

`C/C(=N\NC(=O)Nc1ccccc1)c1cc2c(c(F)c1F)N1C[C@@H](C)O[C@@H](C)[C@@H]1C1(C2)C(=O)NC(=O)NC1=O` (relative stereo) [Example 51, (2E)-2-{1-[(2R,4S,4aS)-rel-9,10-Difluoro-2,4-dimethyl-2′,4′,6′-trioxo-1,1′,2,3′,4,4′,4a,6′-octahydro-2′H,6H-spiro[1,4-oxazino[4,3-a]quinoline-5,5′-pyrimidin]-8-yl]ethylidene}-N-phenylhydrazinecarboxamide] and `COCC(=O)N/N=C(\C)c1cc2c(c(F)c1F)N1C[C@@H](C)O[C@@H](C)[C@@H]1C1(C2)C(=O)NC(=O)NC1=O` (relative stereo) [Example 55, N′-{(1E)-1-[(2R,4S,4aS)-rel-9,10-Difluoro-2,4-dimethyl-2′,4′,6′-trioxo-1,1′,2,3′,4,4′,4a,6′-octahydro-2′H,6H-spiro[1,4-oxazino[4,3-a]quinoline-5,5′-pyrimidin]-8-yl]ethylidene}-2-methoxyacetohydrazide] are within 1.5-fold of each other in IC50: 5500 nM for the first, 7590 nM for the second.

Compared with `Cc1nnc(C)n1/N=C/c1cc2c(c(F)c1F)N1C[C@@H](C)O[C@@H](C)[C@@H]1C1(C2)C(=O)NC(=O)NC1=O` (relative stereo) [Example 47, (2R,4S,4aS)-rel-8-{(E)-[(3,5-Dimethyl-4H-1,2,4-triazol-4-yl)imino]methyl}-9,10-difluoro-2,4-dimethyl-1,2,4,4a-tetrahydro-2′H,6H-spiro[1,4-oxazino[4,3-a]quinoline-5,5′-pyrimidine]-2′,4′,6′(1′H,3′H)-trione], `C[C@H]1CN2c3c(cc(C#Cc4c[nH]cn4)c(F)c3F)CC3(C(=O)NC(=O)NC3=O)[C@@H]2[C@@H](C)O1` (relative stereo) [Example 15, (2S,4R,4aR)-rel-9,10-Difluoro-8-(1H-imidazol-4-ylethynyl)-2,4-dimethyl-1,2,4,4a-tetrahydro-2′H,6H-spiro[1,4-oxazino[4,3-a]quinoline-5,5′-pyrimidine]-2′,4′,6′(1′H,3′H)-trione] is 5.2-fold lower in IC50: 3670 nM for the first, 700 nM for the second.

First: CCNC(=O)Nc1ccc2c(c1)CC1(C(=O)NC(=O)NC1=O)[C@H]1[C@H](C)O[C@H](C)CN21 (relative stereo) [Example 72, 1-[(2R,4S,4aS)-rel-2,4-Dimethyl-2′,4′,6′-trioxo-1,1′,2,3′,4,4′,4a,6′-octahydro-2′H,6H-spiro[1,4-oxazino[4,3-a]quinoline-5,5′-pyrimidin]-8-yl]-3-ethylurea]
Second: C/C(=N\NC(=O)C1CC1)c1cc2c(c(F)c1F)N1C[C@@H](C)O[C@@H](C)[C@@H]1C1(C2)C(=O)NC(=O)NC1=O (relative stereo) [Example 56, N′-{(1E)-1-[(2R,4S,4aS)-rel-9,10-Difluoro-2,4-dimethyl-2′,4′,6′-trioxo-1,1′,2,3′,4,4′,4a,6′-octahydro-2′H,6H-spiro[1,4-oxazino[4,3-a]quinoline-5,5′-pyrimidin]-8-yl]ethylidene}cyclopropanecarbohydrazide]
The IC50 of the first is 5.6-fold higher: 10400 nM for the first, 1870 nM for the second. The second is the more potent here.

Compared with `C[C@@H]1CN2c3c(F)cc(C#Cc4cccnc4)cc3CC3(C(=O)NC(=O)NC3=O)[C@H]2[C@H](C)O1` (relative stereo) [Example 44, (2R,4S,4aS)-rel-10-Fluoro-2,4-dimethyl-8-(pyridin-3-ylethynyl)-1,2,4,4a-tetrahydro-2′H,6H-spiro[1,4-oxazino[4,3-a]quinoline-5,5′-pyrimidine]-2′,4′,6′(1′H,3′H)-trione], `C[C@@H]1CN2c3c(F)cc(C#Cc4cnccn4)cc3CC3(C(=O)NC(=O)NC3=O)[C@H]2[C@H](C)O1` (relative stereo) [Example 43, (2R,4S,4aS)-rel-10-Fluoro-2,4-dimethyl-8-(pyrazin-2-ylethynyl)-1,2,4,4a-tetrahydro-2′H,6H-spiro[1,4-oxazino[4,3-a]quinoline-5,5′-pyrimidine]-2′,4′,6′(1′H,3′H)-trione] is 6.7-fold higher in IC50: 220 nM for the first, 1470 nM for the second.

Compared with `C[C@@H]1CN2c3c(cc(C(=O)NC4CCNC4)c(F)c3F)CC3(C(=O)NC(=O)NC3=O)[C@H]2[C@H](C)O1` (relative stereo) [Example 70, (2R,4S,4aS)-rel-9,10-Difluoro-2,4-dimethyl-2′,4′,6′-trioxo-N-(pyrrolidin-3-yl)-1,1′,2,3′,4,4′,4a,6′-octahydro-2′H,6H-spiro[1,4-oxazino[4,3-a]quinoline-5,5′-pyrimidine]-8-carboxamide], `C[C@@H]1CN2c3c(cc(C#Cc4cccnc4)c(F)c3F)CC3(C(=O)NC(=O)NC3=O)[C@H]2[C@H](C)O1` (relative stereo) [Example 18, (2R,4S,4aS)-rel-9,10-Difluoro-2,4-dimethyl-8-(pyridin-3-ylethynyl)-1,2,4,4a-tetrahydro-2′H,6H-spiro[1,4-oxazino[4,3-a]quinoline-5,5′-pyrimidine]-2′,4′,6′(1′H,3′H)-trione] is 5.8-fold lower in IC50: 2910 nM for the first, 500 nM for the second.

Same assay, conditions: 5 nM enzyme, 0.3 mM ATP, relaxed plasmid, fluorescence anisotropy readout; read-out: E. coli DNA gyrase supercoiling IC50

First: (2R,4S,4aS)-rel-10-Fluoro-2,4-dimethyl-8-[(1-methyl-1H-imidazol-2-yl)ethynyl]-1,2,4,4a-tetrahydro-2′H,6H-spiro[1,4-oxazino[4,3-a]quinoline-5,5′-pyrimidine]-2′,4′,6(1′H,3′H)-trione [Example 42]
Second: C[C@@H]1CN2c3cc(F)c(C#Cc4nccn4C)cc3C(=O)C3(CNC(=O)NC3=O)[C@H]2[C@H](C)O1 (relative stereo) [Example 30, (2R,4S,4aS)-rel-9-Fluoro-2,4-dimethyl-8-[(1-methyl-1H-imidazol-2-yl)ethynyl]-1,2,4,4a-tetrahydro-2′H,6H-spiro[1,4-oxazino[4,3-a]quinoline-5,5′-pyrimidine]-2′,4′,6(1′H,3′H)-trione]
The IC50 of the first is 1.8-fold lower: 640 nM for the first, 1150 nM for the second. The first is the more potent here.
